Measured values: patent US20220040280A1, “INHIBITORS AND USES THEREOF” (UNIVERSITY OF CANBERRA, priority 2016, published 2022)
“Also recorded” adds a separate entry of the source. Residues, ends and D or L forms follow the SMILES beside them. *: point of attachment. Myristoyl = CCCCCCCCCCCCCC(=O)*

B1: IFNγ: interferon gamma used as stimulus (10 μg/mL) (protein, UniProt P01579 24-161, looked up)
Interferon gamma: QDPYVKEAENLKKYFNAGHSDVADNGTLFLGILKNWKEESDRKIMQSQIVSFYFKLFKNFKDDQSIQKSVETIKEDMNVKFFNSNKKKRDDFEKLTNYSVTDLNVQRKAIHELIQVMAELSPAAKTGKRKRSQMLFRG

Experiments:
[1] = test system: MDA-MB-231 breast cancer cells; assay: Flow cytometry of stimulated MDA-MB-231 cells (PD-L1, CD44, CD24); assay type: cell-based, human; conditions: for Median Fluorescence Intensity (MFI) of PD-L1, change on stimulation: MDA-MB-231 cells
Method: MCF7 and MDA-MB-231 cells were obtained from the American Type Culture Collection (Manassas, Va.). Cells were cultured in DMEM (Invitrogen, Life Technologies, Carlsbad, Calif.) supplemented with 10% FBS, 2 mM L-glutamine, and 1% penicillin-streptomycin-neomycin. MCF7 cells were stimulated with 1.32 ng/ml phorbol 12-myristate 13-acetate (PMA) (Sigma-Aldrich, St Louis, Mo.) or 5 ng/ml recombinant TGF-β1 (R&D Systems, Minneapolis, Minn.) for 60 h. For the co-culture assay MDA-MB-231 cells were stimulated with Jurkat T-cells at defined ratios.
(§1) Isolated PBMCs and CTCs were stained with CD45−APC, pan-cytokeratin (CK)-FITC, EpCAM-Percp-Cy5.5 and PD-L1-BV421 antibodies. Co-cultured MDA-MB-231 cells were stained with CD44, CD24 and PD-L1. Flow cytometric analysis was performed on single cell suspensions for using the BD LSR II Flow Cytometer.

[2] = test system: MDA-MB-231 breast cancer cells; assay: as above; assay type: cell-based, human; conditions: IFNγ 10 μg/mL, PMA 24 ng/mL, 24 or 48 hours
MDA-MB-231 cells = conditions: 100 μM, FIG. 21
Method: (§4) 5×10^4 MCF7 or MDA-MB-231 cells were seeded with 1 mL of complete DMEM in 12 well plates overnight. […] Samples were harvested by trypsinisation followed by washing with DPBS containing 2% HI-FBS. FACS staining were performed using anti-human CD44-APC, anti-human CD24-PE, Hoechst, and anti-human EpCAM antibody cocktails. Data was collected from a BD FACSLSR-II flow cytometer. Treestar FlowJo was used for data analysis.

PD-L1 [3] = assay: Confocal microscopy of PD-L1 in MCF7 cells treated with peptide inhibitors; assay type: cell-based, human; conditions: for abrogation of nuclear PD-L1 expression: epithelial non-stimulated MCF7 cells, compared with stimulated cells; for Fn/c ratio (nuclear bias) of PD-L1: peptide treated MCF7 cells; for cytoplasmic/surface expression of PD-L1 (TCFI): stimulated MCF7 cells; for cytoplasmic/surface expression of PD-L1 (TCFI) / expression of nuclear PD-L1 (TNFI): FIG. 5; for expression of nuclear PD-L1 (TNFI): stimulated, mesenchymal MCF7 cells
Method: (§2) Cells were probed with either rabbit antibodies to LSD1s111p (Merck ABE1462), EGFR (AB2430), MET (ab51067), PD-L1 (sc-50298), goat antibodies to PD-L1 (sc-19091), SC-14033), (sc-19096), mouse antibodies to Cytokeratin (Miltenyi 130-090-866), CSV (Abnova H00007431-M08), vimentin (SC-6260) followed by visualisation with secondary anti mouse Alexa-Fluor 568 (A10037), secondary anti rabbit Alexa-Fluor 488 (A21206) or secondary anti goat Alexa-Fluor 633 (A21082).
(§3) MDA-MB-231 or MCF7 cells were treated with one of L1, L2 or L3 and a control. Cells were then fixed with 3.7% formaldehyde and permeabilized with 2% Triton-X-100, then probed with a primary mouse antibody against LSD1 or a primary rabbit antibody against PD-L1, EGFR or MET, followed by visualization with a secondary goat antibody to mouse or rabbit immunoglobulins conjugated to Alexa-Fluor 488. Confocal laser scanning microscopy was used to measure the Fn/c (ratio of nuclear to cytoplasmic fluorescent intensity) ratio of LSD1 with Fiji-imageJ or the total nuclear fluorescence of PD-L1, EGFR or MET. Values are plotted with significant differences indicated using the Mann-Whitney T-test, with at least 20 cells counted per sample. Representative images for each treatment are shown.

LSD1 = molecular target: T1, LSD1 (Homo sapiens, UniProt O60341); assay: LSD1 nuclear translocation in MDA-MB-231 cells, confocal microscopy; assay type: cell-based; conditions: FIG. 19 and FIG. 31
T1 construct: endogenous in cells; host or cells: MCF7 (non-stimulated or PMA-stimulated) and MDA-MB-231 breast cancer cells
Method: as §3
Confocal laser scanning microscopy was performed on MDA-MB-231 cells treated with a LSD1 peptide inhibitor, L1, L2 or L3, or vehicle alone. Cells were fixed with 3.7% formaldehyde and permeabilized with 2% Triton-X-100, and then probed with a primary mouse antibody to LSD1, followed by the corresponding secondary antibody conjugated to Alexa-Fluor 488. Confocal laser scanning microscopy was used to determine the Fn/c ratio of LSD1 with image-J. Values are plotted with significant differences indicated. Data shown represent the mean±SE for at least 20 individual cells.

PD-L1 [4] = assay: Confocal microscopy of PD-L1 in MDA-MB-231 cells treated with peptide inhibitors; assay type: cell-based, human; conditions: for cytoplasmic/surface expression of PD-L1 (TCFI) / expression of nuclear PD-L1 (TNFI) / PD-L1 nuclear expression: MDA-MB-231 cells; for cytoplasmic/surface expression of PD-L1 (TCFI) / expression of nuclear PD-L1 (TNFI): FIG. 6; for PD-L1 nuclear expression: in comparison to the control, FIG. 22 (50 μM and 100 μM); for Fn/c ratio (nuclear bias) of PD-L1: peptide treated MDA-MB-231 cells
Method: as §2, §3

MET = assay: Confocal microscopy of MET in MDA-MB-231 cells treated with peptide inhibitors; assay type: cell-based, human; conditions: in comparison to control, FIG. 24
Method: as §3

MCF7 cells = conditions: PMA stimulated MCF7 cells, 50 μM and 100 μM tested, FIG. 20
Method: as §4

[5] = molecular target: T2, LSD1 phosphorylated at serine 111 (LSD1s111p) (Homo sapiens, UniProt O60341); assay: Confocal microscopy of LSD1s111p in MCF7 cells treated with peptide inhibitors; assay type: cell-based; conditions: stimulated and non-stimulated MCF7 cells, relative to control, FIG. 4
T2 construct: endogenous in cells; host or cells: MCF7 (non-stimulated or PMA-stimulated) and MDA-MB-231 breast cancer cells
Method: as §2, §3

EGFR = assay: Confocal microscopy of EGFR in MDA-MB-231 cells treated with peptide inhibitors; assay type: cell-based, human; conditions: in comparison to control, FIG. 23
Method: as §3

[6] = molecular target: T2, LSD1 phosphorylated at serine 111 (LSD1s111p); assay: Confocal microscopy of LSD1s111p in MDA-MB-231 cells treated with peptide inhibitors; assay type: cell-based; conditions: relative to control, FIG. 4
Method: as §2, §3

PD-L1 [7] = assay: FACS of PD-L1 in CD45-CK+ circulating tumor cells from patient liquid biopsies; assay type: cell-based, human; conditions: CD45-CK+ CTCs
Method: as §1

[8] = stimulated MDA-MB-231, 24 hours
[9] = stimulated MDA-MB-231, 48 hours

Molecule | Median Fluorescence Intensity (MFI) of PD-L1, change on stimulation [1] | CD44^hi CD24^lo (Frequency of parent, %) [1, 8] | CD44^hi CD24^lo, PD-L1+ (Frequency of parent, %) [1, 8] | Mean Fluorescence Intensity of Comp Pacific Blue-A PD-L1, CD44^hi CD24^lo, PD-L1+ subset [1, 8] | Mean Fluorescence Intensity of Comp Pacific Blue-A PD-L1, PD-L1+ subset [1, 8] | PD-L1+ (Frequency of parent, %) [1, 8] | cancer stem cell formation (MDA-MB-231 cells) | abrogation of nuclear PD-L1 expression (PD-L1 [3]) | Fn/c ratio (nuclear bias) of PD-L1 (PD-L1 [3]) | cytoplasmic/surface expression of PD-L1 (TCFI) (PD-L1 [3]) | expression of nuclear PD-L1 (TNFI) (PD-L1 [3]) | nuclear translocation of LSD1 (Fn/c) (LSD1) | cytoplasmic/surface expression of PD-L1 (TCFI) (PD-L1 [4]) | expression of nuclear PD-L1 (TNFI) (PD-L1 [4]) | PD-L1 nuclear expression (PD-L1 [4]) | Fn/c ratio (nuclear bias) of PD-L1 (PD-L1 [4]) | MET nuclear expression (TNFI) (MET) | nuclear expression of LSD1s111p (TNFI) [5] | EGFR nuclear expression (TNFI) (EGFR) | nuclear expression of LSD1s111p (TNFI) [6] | other results
CCCCCCCCCCCCCC(=O)O[C@@H]1[C@@H](C)[C@@]2(O)[C@@H](C=C(CO)C[C@]3(O)C(=O)C(C)=C[C@@H]23)[C@@H]2C(C)(C)[C@]12OC(C)=O [PMA, phorbol 12-myristate 13-acetate, reference compound] | decreased | 98.4% | 98.6% | 3145 | 3126 | 98.5% | – | – | – | – | – | – | – | – | – | – | – | – | – | – | CD44^hi CD24^lo (Frequency of parent, %) [1, 9]: 98.3%; CD44^hi CD24^lo, PD-L1+ (Frequency of parent, %) [1, 9]: 99.2%; Mean Fluorescence Intensity of Comp Pacific Blue-A PD-L1, CD44^hi CD24^lo, PD-L1+ subset [1, 9]: 4016; Mean Fluorescence Intensity of Comp Pacific Blue-A PD-L1, PD-L1+ subset [1, 9]: 3983; PD-L1+ (Frequency of parent, %) [1, 9]: 99.1%; frequency (%) of PD-L1+ cells, change on stimulation [2]: not altered
CCCCCCCCCCCCCC(=O)N[C@@H](CCCNC(=N)N)C(=O)N[C@@H](CCCNC(=N)N)C(=O)N[C@H](C(=O)N[C@@H](C)C(=O)N[C@@H](CCCNC(=N)N)C(=O)N[C@@H](CCCNC(=N)N)C(=O)N[C@@H](CCCCN)C(=O)N[C@@H](CCCNC(=N)N)C(=O)N[C@@H](C)C(=O)N[C@@H](CCCCN)C(=O)N[C@H](C(=O)O)C(C)C)[C@@H](C)O [Peptide L2, Myristoyl-RRTARRKRAKV-OH] (Myristoyl-RRTARRKRAKV-OH) | – | – | – | – | – | – | significant reduction | lessened | strongly nuclear | significantly inhibited | significantly abrogated | inhibited; also recorded: clearly abrogated | significantly inhibited | significantly abrogated | abrogated | strongly nuclear | significant abrogation | significantly abrogated | reduction | significantly abrogated | cancer stem cell formation (MCF7 cells): inhibited
CCCCCCCCCCCCCC(=O)N[C@@H](CCCNC(=N)N)C(=O)N[C@@H](CCCNC(=N)N)C(=O)N[C@H](C(=O)N[C@@H](CO)C(=O)N[C@@H](CCCNC(=N)N)C(=O)N[C@@H](CCCNC(=N)N)C(=O)N[C@@H](CCCCN)C(=O)N[C@@H](CCCNC(=N)N)C(=O)N[C@@H](C)C(=O)N[C@@H](CCCCN)C(=O)N[C@H](C(=O)O)C(C)C)[C@@H](C)O [Peptide L1, Myristoyl-RRTSRRKRAKV-OH] (Myristoyl-RRTSRRKRAKV-OH) | – | – | – | – | – | – | significant reduction | lessened | strongly nuclear | significantly inhibited | significantly abrogated | inhibited; also recorded: clearly abrogated | significantly inhibited | significantly abrogated | abrogated | strongly nuclear | significant abrogation | significantly abrogated | significant abrogation | significantly abrogated | cancer stem cell formation (MCF7 cells): inhibited
CN(C)C(=O)c1cc2cnc(Nc3ccc(N4CCNCC4)cn3)nc2n1C1CCCC1 [Ribociclib] | – | – | – | – | – | – | – | – | – | – | – | – | – | – | – | – | – | – | – | – | PD-L1 nuclear (nPD-L1) expression (PD-L1 [7]; Patient A, FIG. 18A): greatest inhibition; PD-L1 nuclear expression (PD-L1 [7]; Patient B, FIG. 18B): inhibited; PD-L1 surface/cytoplasmic expression (PD-L1 [7]; Patient B, FIG. 18B): inhibited
CCCCCCCCCCCCCC(=O)N[C@@H](CCCNC(=N)N)C(=O)N[C@@H](Cc1c[nH]c2ccccc12)C(=O)N[C@@H](CCCNC(=N)N)C(=O)N[C@@H](CCCNC(=N)N)C(=O)N[C@H](C(=O)N[C@@H](C)C(=O)N[C@@H](CCCNC(=N)N)C(=O)N[C@@H](CCCNC(=N)N)C(=O)N[C@@H](CCCCN)C(=O)N[C@@H](CCCNC(=N)N)C(=O)N[C@@H](C)C(=O)N[C@@H](CCCCN)C(=O)N[C@H](C(=O)O)C(C)C)[C@@H](C)O [Peptide L3, Myristoyl-RWRRTARRKRAKV-OH] (Myristoyl-RWRRTARRKRAKV-OH) | – | – | – | – | – | – | significant reduction | lessened | strongly nuclear | significantly inhibited | significantly abrogated | inhibited; also recorded: clearly abrogated | significantly inhibited | significantly abrogated | abrogated | strongly nuclear | significant abrogation | significantly abrogated | reduction | significantly abrogated | –
B1 | increases | 77.7% | 99.7% | 6173 | 6015 | 99.7% | – | – | – | – | – | – | – | – | – | – | – | – | – | – | CD44^hi CD24^lo (Frequency of parent, %) [1, 9]: 98.9%; CD44^hi CD24^lo, PD-L1+ (Frequency of parent, %) [1, 9]: 99.7%; Mean Fluorescence Intensity of Comp Pacific Blue-A PD-L1, CD44^hi CD24^lo, PD-L1+ subset [1, 9]: 6173; Mean Fluorescence Intensity of Comp Pacific Blue-A PD-L1, PD-L1+ subset [1, 9]: 6133; PD-L1+ (Frequency of parent, %) [1, 9]: 99.7%; frequency (%) of PD-L1+ cells, change on stimulation [2]: not altered
